Test results taken from US7910135B2, “Hydrogel wound dressing and biomaterials formed in situ and their uses” (ULURU Inc., priority 2006, dated 2011).

Tests used:
metalloproteases = conditions: cited from earlier work
[1] = Release of lidocaine or erythromycin from nanoparticle aggregates in PBS; type: physicochemical; conditions: dry blended with pHEMA or HEMA/GMA copolymer powder, aggregate formed in PBS
Description: Poly-HEMA nanoparticle powder and HEMA/GMA copolymer nanoparticle powders were dry blended with lidocaine or erythromycin powder and upon exposure to PBS, aggregates formed trapping the active between the particles comprising the aggregate.

Compound | Effective concentration (metalloproteases) [mmol/L] | Change of release rate as the glycerol methacrylate comonomer is increased [1]
c1cnc2c(c1)ccc1cccnc12 [1,10 phenanthroline] | 0.1 | –
CC[C@H]1OC(=O)[C@H](C)[C@@H](O[C@H]2C[C@@](C)(OC)[C@@H](O)[C@H](C)O2)[C@H](C)[C@@H](O[C@@H]2O[C@H](C)C[C@H](N(C)C)[C@H]2O)[C@](C)(O)C[C@@H](C)C(=O)[C@H](C)[C@@H](O)[C@]1(C)O [erythromycin] | – | increases
CCN(CC)CC(=O)Nc1c(C)cccc1C [lidocaine] | – | released at a slower rate
